The results in this text go back to US8501960B2, “Saxagliptin intermediates, saxagliptin polymorphs, and processes for preparation thereof” (Assia Chemical Industries Ltd., priority 2010, dated 2013).

The structures appear in SMILES notation.

The series can be described thus: Stability of crystalline compound M and Saxagliptin monohydrate form H-1 on storage, measured by HPLC. The class given is physicochemical. On the procedure: Unless stated otherwise, the HPLC peak % referred to herein were measured using a UV detection having a wavelength of 220 nm.
Instrumental and Chromatographic Conditions
Instrument: HPLC system equipped with UV detector.
• Flow rate: about 1 mL/min • Injection volume: about 10 μL • Column: Waters XBridge C8, 150 mm×4.6 mm, 3.5 μm • Column temperature: 25° C. • Detector: DAD (UV) at wavelengths 220 nm • Mobile phase: Gradient elution with Solution A and Solution B (see Table 1) • Solution A: Buffer solution. Dissolve in water about 24.0 g of sodium octyl-1-sulfonate in 1000 mL volumetric flask, make up to the volume with water and adjust pH to 3.3 with phosphoric acid. • Solution B: Acetonitrile, HPLC grade
• Stop time: 25 minutes • Post time: 5 minutes • Diluent: Prepare a solution of 25% acetonitrile, 25% methanol, and 50% of the buffer solution (the one that is used in gradient elution). The Following Chemicals (or Equivalent) Should Be Used:
• 1. Blank: Use the diluent. • 2. Sample preparation: Prepare SXG sample solution with concentration of about 1.0 mg/mL prepare in duplicate Procedure
Samples of crystalline compound M and Saxagliptin monohydrate form H-1 were prepared and the amount of Saxagliptin and the amount of cyclic amidine were measured by HPLC at time zero (=time 0). Samples of crystalline compound M and Saxagliptin monohydrate form H-1 were maintained for 2 weeks, 1 month and 2 months, at the conditions described in the following table. Afterwards, the amount of Saxagliptin and the amount of cyclic amidine was measured by HPLC.

With `N#C[C@@H]1C[C@@H]2C[C@@H]2N1C(=O)[C@@H](N)C12CC3CC(CC(O)(C3)C1)C2` [Saxaglitpin base monohydrate, Form H-1, (1S,3S,5S)-2-((2S)-2-Amino-2-(3-hydroxyadamantan-1-yl)-acetyl)-2-azabicyclo[3.1.0]hexane-3-carbonitrile], the “CA = cyclic amidine (amount by HPLC)” value is, setting by setting: (40° C./40% RH, 1 month) “CA = 5.8%”; (40° C./40% RH, 2 months) “CA = 11.5%”; (40° C./40% RH, 2 weeks) “CA = 4.0%”; (40° C./40% RH, Time 0) “CA = 0.50%”; (50° C./0% RH, 1 month) “CA = 1.3%”; (50° C./0% RH, 2 months) “CA = 2.1%”. Moreover, the “CA = cyclic amidine (amount by HPLC)” value reads like this: (50° C./0% RH, 2 weeks) “CA = 1.2%”; (50° C./0% RH, Time 0) “CA = 0.50%”. The “RRT1.14 (impurity amount by HPLC)” value is listed as “RRT1.14 = 4.1%” (40° C./40% RH, 1 month); “RRT1.14 = 7.7%” (40° C./40% RH, 2 months); “RRT1.14 = 2.1%” (40° C./40% RH, 2 weeks); “RRT1.14 = 1.1%” (50° C./0% RH, 1 month); “RRT1.14 = 2.51%” (50° C./0% RH, 2 months); “RRT1.14 = 0.4%” (50° C./0% RH, 2 weeks). The “SXG = Saxagliptin (amount by HPLC)” value by setting is: (40° C./40% RH, 1 month) “SXG = 86.8%”; (40° C./40% RH, 2 months) “SXG = 77.4%”; (40° C./40% RH, 2 weeks) “SXG = 93.1%”; (40° C./40% RH, Time 0) “SXG = 98.9%”; (50° C./0% RH, 1 month) “SXG = 96.9%”; (50° C./0% RH, 2 months) “SXG = 94.8%”. In addition, the “SXG = Saxagliptin (amount by HPLC)” value is, setting by setting: (50° C./0% RH, 2 weeks) “SXG = 97.8%”; (50° C./0% RH, Time 0) “SXG = 98.9%”.
On to `CC(C)=N[C@H](C(=O)N1[C@H](C#N)C[C@@H]2C[C@@H]21)C12CC3CC(CC(O)(C3)C1)C2` [crystalline Compound M, (1S,3S,5S)-2-[(2S)-2-propan-2-ylideneamino-2-(3-hydroxy-1-adamantyl)acetyl]-2-azabicyclo[3.1.0]-hexane-3-carbonitrile], for which the “CA = cyclic amidine (amount by HPLC)” value is “CA = 0.50%” (40° C./40% RH, 1 month); “CA = 0.61%” (40° C./40% RH, 2 months); “CA = 0.53%” (40° C./40% RH, 2 weeks); “CA = 0.20%” (40° C./40% RH, Time 0); “CA = 0.27%” (50° C./0% RH, 1 month); “CA = 0.31%” (50° C./0% RH, 2 months). For the same compound, the “CA = cyclic amidine (amount by HPLC)” value (50° C./0% RH, 2 weeks) is recorded as “CA = 0.25%” and the “CA = cyclic amidine (amount by HPLC)” value (50° C./0% RH, Time 0) is on record as “CA = 0.20%”. For the same compound, the “SXG = Saxagliptin (amount by HPLC)” value is listed as “SXG = 99.0%” (40° C./40% RH, 1 month); “SXG = 99.0%” (40° C./40% RH, 2 months); “SXG = 99.0%” (40° C./40% RH, 2 weeks); “SXG = 99.6%” (40° C./40% RH, Time 0); “SXG = 99.4%” (50° C./0% RH, 1 month); “SXG = 99.4%” (50° C./0% RH, 2 months). Also, the “SXG = Saxagliptin (amount by HPLC)” value reads like this: (50° C./0% RH, 2 weeks) “SXG = 99.6%”; (50° C./0% RH, Time 0) “SXG = 99.6%”. In addition, the chemical stability result (compared to Saxagliptin monohydrate form H-1) was “enhanced chemical stability”.
